Experimental data taken from patent EP4782453A1 (Beyang Therapeutics Co., Ltd., priority 2023, dated 2025).
pEC50, pIC50: −log10 of the molar value.

Columns and labels:
[1] = system: MOLM-13 (carrying MLL-AF9); test: Inhibition of proliferation of human tumor cells (Alamar Blue, 7 days), MOLM-13; type: cell-based; conditions: Homo sapiens, MOLM-13 cells (carrying MLL-AF9), method calls the value GI50
How it was run: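 MV-4-11: IMDM + 10% FBS; KG-1a: IMDM + 20% FBS; MOLM-13: RPMI-1640 + 20% FBS. 3- or 4-fold serial dilutions, duplicates, 7 d at 37°C. Readout Alamar Blue; GI50 vs Day 0 and Day 7 DMSO controls.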

MEIS1 gene expression = test: Inhibition of MEIS1 gene expression in human tumor cells (qRT-PCR), MV-4-11; type: cell-based; conditions: MV4-11, MV-4-11 (carrying MLL-AF4), 48 hours of incubation, relative MEIS1 gene expression vs GAPDH, read-out: MV-4-11 MEISI EC50
From the text: Experimental Example 3: Evaluation of Inhibitory Activity of Compounds Against MEISI Gene Expression in Human Tumor Cells
The effect of test samples on MEIS1 gene expression in vitro cultured human leukemia cells MV-4-11 (carrying MLL-AF4), MOLM-13 (carrying MLL-AF9), and OCI-AML3 (carrying NPM1c) was studied.
• Human acute lymphoblastic leukemia cells MV-4-11, purchased from American Type Culture Collection, Catalog Number: CRL-9591; • Human acute myeloid leukemia cells MOLM-13, purchased from COBIOER BIOSCIENCES CO., LTD, Catalog Number: CBP60678; • Human acute myeloid leukemia cells OCI-AML3, purchased from COBIOER BIOSCIENCES CO., LTD, Catalog Number: CBP60817; • MEIS1 Primer/Probe, purchased from IDT, Catalog Number: 40831613; and • GAPDH Primer/Probe, purchased from IDT, Catalog Number: 22214836.
MV-4-11 cells were cultured in an IMDM medium containing 10% fetal bovine serum, or MOLM-13 and OCI-AML3 cells were cultured in an RPMI-1640 medium containing 20% fetal bovine serum, each supplemented with 100 U·mL^-1 penicillin and 100 µg·mL^-1 streptomycin. These cells were cultured at 37°C with 5% CO2. The suspensions of individual cell lines were prepared in their respective media and seeded into 48-well plates at a density of 100,000 cells/well. On the day of the experiment, a compound stock solution was diluted in a 6-fold gradient using DMSO. Each gradient-diluted stock solution was then further diluted 250-fold with a complete medium to prepare a series of working solutions at different concentrations. Next, 250 µL of working solution (containing the complete medium with a 2-fold serial concentration of the test compound or a positive control compound, or containing a control complete medium) was added to each well. After 48 hours of incubation, cells from the 48-well plate were collected into 1 mL centrifuge tubes, centrifuged at 1000 rpm for 5 minutes, and the complete medium was removed. Cells were washed twice with 1 mL PBS and centrifuged to remove PBS. Total RNA was extracted using the RNeasy Mini Kit (250) (QIAGEN, 74106). The threshold cycle (Ct) value for gene expression was determined using the HiScript II U+ One Step qRT-PCR Probe Kit (Vazyme) (Vazyme, Q223-01), with 3 replicates per sample. The prepared reaction mixture was placed in an ABI 7500 real-time PCR instrument, and the reaction proceeded following the procedures below. [formula]
Next, for the relative MEIS1 gene expression, the concentration (EC50) that inhibits 50% of relative MEIS1 gene expression was calculated using GraphPad Prism 8 software.

SMILES | pIC50 ([1]; 168 h) | pEC50 (MEIS1 gene expression) | pIC50 ([1]; MOLM-13, 168 h)
CCS(=O)(=O)N[C@H]1CC[C@H](CN2CC(c3cc(-c4ccc(F)cc4C(=O)N4CCOC[C@H]4C)c4cnc(C)n4c3)C2)CC1 [Example 134, N-[(1r,4r)-4-{[3-(8-{4-fluoro-2-[(3R)-3-methylmorpholin-4-carbonyl]phenyl}-3-methylimidazo[1,5-a]pyridin-6-yl)azacyclobutan-1-yl]methyl}cyclohexyl]ethan-1-sulfonamide] | 7.68 | 7.26 | –
CCN1CCN(CCC[C@H](C(C)C)N2CC(c3cc(-c4ccc(F)cc4C(=O)N4CCOC[C@H]4C)c4cnc(C)n4c3)C2)CC1 [Example 324-2] | 8.04 | 8.14 | –
CCN(C(=O)c1cc(F)ccc1-c1cc(C2CN([C@H](CCCN3CCN(CCO)CC3)C(C)C)C2)cn2c(C)ncc12)C(C)C [Example 398, N-ethyl-5-fluoro-2-(6-{1-[(3R)-6-[4-(2-hydroxyethyl)piperazin-1-yl]-2-methylhexan-3-yl]azacyclobutan-3-yl}-3-methylimidazo[1,5-a]pyridin-8-yl)-N-(isopropyl)benzamide] | 8.37 | 8.72 | –
Cc1nc(F)c2c(-c3ccc(F)cc3C(=O)N3CCOC[C@H]3C)cc(C3CN([C@H](CCCN4C[C@H]5C[C@@H]4CO5)C(C)C)C3)cn12 [Example 353, (1R,4R)-5-[(4R)-4-[3-(1-fluoro-8-{4-fluoro-2-[(3R)-3-methylmorpholin-4-carbonyl]phenyl}-3-methylimidazo[1,5-a]pyridin-6-yl)azacyclobutan-1-yl]-5-methylhexyl]-2-oxa-5-azabicyclo[2.2.1]heptane] | 8.27 | 8.13 | –
CCN(C(=O)c1cc(F)ccc1-c1cc(C2CN([C@H](CCCN3C[C@H]4C[C@@H]3CO4)C(C)C)C2)cn2c(C)ncc12)C(C)C [Example 379, N-ethyl-5-fluoro-2-(3-methyl-6-{1-[(3R)-2-methyl-6-[(1R,4R)-2-oxa-5-azabicyclo[2.2.1]heptan-5-yl]hexan-3-yl]azacyclobutan-3-yl}imidazo[1,5-a]pyridin-8-yl)-N-(isopropyl)benzamide] | 8.60 | 8.62 | –
Cc1nc(F)c2c(-c3ccc(F)cc3C(=O)N3CCOC[C@H]3C)cc(C3CN([C@H](CCCN4CCC[C@H](O)C4)C(C)C)C3)cn12 [Example 293] | 7.62 | 7.64 | –
CO[C@@H]1CCCN(CCC[C@H](C(C)C)N2CC(c3cc(-c4ccc(F)cc4C(=O)N4CCOC[C@H]4C)c4c(F)nc(C)n4c3)C2)C1 [Example 305] | 7.92 | 8.12 | –
COC1CCN(CCCC(C(C)C)N2CC(c3cc(-c4ccc(F)cc4C(=O)N4CCOCC4C)c4c(F)nc(C)n4c3)C2)C1 (stereo not drawn) [Example 201-1] | 8.29 | 8.47 | –
CC(=O)N1CCC([C@H](C)N2CC(c3cc(-c4ccc(F)cc4C(=O)N4CCOC[C@H]4C)c4c(F)nc(C)n4c3)C2)CC1 [Example 257-2, 1-{4-[(1S)-1-[3-(1-fluoro-8-{4-fluoro-2-[(3R)-3-methylmorpholin-4-carbonyl]phenyl}-3-methylimidazo[1,5-a]pyridin-6-yl)azacyclobutan-1-yl]ethyl]piperidin-1-yl}ethan-1-one] | 7.51 | 7.72 | –
COC1CCN(CCC[C@H](C(C)C)N2CC(c3cc(-c4ccc(F)cc4C(=O)N4CCOC[C@H]4C)c4c(F)nc(C)n4c3)C2)CC1 [Example 204, (3R)-4-[5-fluoro-2-(1-fluoro-6-{1-[(3R)-6-(4-methoxypiperidin-1-yl)-2-methylhexan-3-yl]azacyclobutan-3-yl}-3-methylimidazo[1,5-a]pyridin-8-yl)benzoyl]-3-methylmorpholine] | 7.95 | 7.82 | –
Cc1nc(F)c2c(-c3ccc(F)cc3C(=O)N3CCOC[C@H]3C)cc(C3CN([C@H](CCCN4CCN(C)CC4)C(C)C)C3)cn12 [Example 275, (3R)-4-[5-fluoro-2-(1-fluoro-3-methyl-6-{1-[(3R)-2-methyl-6-(4-methylpiperazin-1-yl)hexan-3-yl]azacyclobutan-3-yl}imidazo[1,5-a]pyridin-8-yl)benzoyl]-3-methylmorpholine] | 8.03 | 8.08 | –
Cc1nc(F)c2c(-c3ccc(F)cc3C(=O)N3[C@H](C)COC[C@H]3C)cc(C3CN(CC4CCOCC4)C3)cn12 [Example 208] | 8.02 | 7.64 | –
Cc1nc(F)c2c(-c3ccc(F)cc3C(=O)N3CCOCC3C)cc(C3CN(C(CCCN4CCCC(O)C4)C(C)C)C3)cn12 (stereo not drawn) [Example 292] | 7.89 | 7.82 | –
CC[C@@H](C1CCN(C(C)=O)CC1)N1CC(c2cc(-c3ccc(F)cc3C(=O)N3CCOC[C@H]3C)c3c(F)nc(C)n3c2)C1 [Example 280-1, 1-{4-[(1S)-1-[3-(1-fluoro-8-{4-fluoro-2-[(3R)-3-methylmorpholin-4-carbonyl]phenyl}-3-methylimidazo[1,5-a]pyridin-6-yl)azacyclobutan-1-yl]propyl]piperidin-1-yl}ethan-1-one] | 7.57 | 7.21 | –
CCS(=O)(=O)N[C@H]1CC[C@H](CN2CC(c3cc(-c4ccc(F)cc4C(=O)N4[C@H](C)COC[C@H]4C)c4c(F)nc(C)n4c3)C2)CC1 [Example 197, N-[(1r,4r)-4-{[3-(8-{2-[(3R,5R)-3,5-dimethylmorpholin-4-carbonyl]-4-fluorophenyl}-1-fluoro-3-methylimidazo[1,5-a]pyridin-6-yl)azacyclobutan-1-yl]methyl}cyclohexyl]ethan-1-sulfonamide] | – | 7.85 | 7.99
CCN(C(=O)c1cc(F)ccc1-c1cc(C2CN([C@H](CN3CCN(CCO)CC3)C(C)C)C2)cn2c(C)ncc12)C(C)C [Example 431, N-ethyl-5-fluoro-2-(6-{1-[(2S)-1-[4-(2-hydroxylethyl)piperazin-1-yl]-3-methylbutan-2-yl]azacyclobutan-3-yl}-3methylimidazo[1,5-a]pyridin-8-yl)-N-(isopropyl)benzamide] | 7.82 | 8.26 | –
CCNC(=O)N1CCC(CN2CC(c3cc(-c4ccc(F)cc4C(=O)N4CCOC[C@H]4C)c4c(F)nc(C)n4c3)C2)CC1 [Example 261] | 7.64 | 8.07 | –
CCN1CCN(CCC[C@H](C(C)C)N2CC(c3cc(-c4ccc(F)cc4C(=O)N4CCOC[C@H]4C)c4c(F)nc(C)n4c3)C2)CC1 [Example 277] | 8.14 | 8.19 | –
